Source: ChEMBL document CHEMBL1157801, “Discovery of an in vitro and in vivo potent resorcylic lactone analog of LL-Z1640-2 as anti-inflammatory lead, II” (Bioorg Med Chem Lett, 2010)
Active and inactive are the calls of the source. The rule behind the calls is not given here.

Tests used:
Mus musculus = test: Antiinflammatory activity in iv dosed mouse assessed as inhibition of LPS-stimulated TNFalpha production; assay type: functional
U-937 [1] = test: Inhibition of PALP-fussed TNFalpha production in human U937 cells; assay type: functional, cell-based
U-937 [2] = test: Inhibition of PALP-fussed actin production in human U937 cells; assay type: functional, cell-based

Row | SMILES | IC50 (U-937 [1]) | IC50 (U-937 [2]) | ED50 (Mus musculus)
1 | COc1cc(O)c2c(c1)/C=C/C[C@H](O)[C@H](O)C(=O)/C=C\C[C@H](C)OC2=O | – | – | inactive
2 | CCCOc1cc(O)c2c(c1)/C=C/C[C@H](O)[C@H](O)C(=O)/C=C\[C@@H](C)[C@H](C)OC2=O | 0.249 µM | > 10 µM | –
3 | C[C@@H]1/C=C\C(=O)[C@@H](O)[C@@H](O)C/C=C/c2cc(OC(F)F)cc(O)c2C(=O)O[C@H]1C | 0.615 µM | > 10 µM | –
4 | C[C@@H]1/C=C\C(=O)[C@@H](O)[C@@H](O)C/C=C/c2cc(OCCN3CCOCC3)cc(O)c2C(=O)O[C@H]1C | 0.059 µM | > 10 µM | –
5 | CC(=O)NCCOc1cc(O)c2c(c1)/C=C/C[C@H](O)[C@H](O)C(=O)/C=C\[C@@H](C)[C@H](C)OC2=O | 0.065 µM | > 10 µM | –
6 | C[C@@H]1/C=C\C(=O)[C@@H](O)[C@@H](O)C/C=C/c2cc(OCc3ccc(Cl)c(Cl)c3)cc(O)c2C(=O)O[C@H]1C | 0.752 µM | > 10 µM | –
7 | C[C@@H]1/C=C\C(=O)[C@@H](O)[C@@H](O)C/C=C/c2cc(O)cc(O)c2C(=O)O[C@H]1C | 0.515 µM | > 10 µM | –
8 | C[C@@H]1/C=C\C(=O)[C@@H](O)[C@@H](O)C/C=C/c2cc(OCCn3ccnn3)cc(O)c2C(=O)O[C@H]1C | 0.043 µM | > 10 µM | –
9 | C[C@@H]1/C=C\C(=O)[C@@H](O)[C@@H](O)C/C=C/c2cc(OCCNc3ccccn3)cc(O)c2C(=O)O[C@H]1C | 0.113 µM | > 10 µM | –
10 | COc1ccc(COc2cc(O)c3c(c2)/C=C/C[C@H](O)[C@H](O)C(=O)/C=C\[C@@H](C)[C@H](C)OC3=O)cc1 | 0.168 µM | > 10 µM | –

Second part, led by results:

Row | IC50 (U-937 [1]) | IC50 (U-937 [2]) | SMILES | ED50 (Mus musculus)
11 | 0.319 µM | > 10 µM | C[C@@H]1/C=C\C(=O)[C@@H](O)[C@@H](O)C/C=C/c2cc(OCc3ccccc3)cc(O)c2C(=O)O[C@H]1C | –
12 | 0.687 µM | > 10 µM | CC(C)Oc1cc(O)c2c(c1)/C=C/C[C@H](O)[C@H](O)C(=O)/C=C\[C@@H](C)[C@H](C)OC2=O | –
13 | 0.383 µM | > 10 µM | C[C@@H]1/C=C\C(=O)[C@@H](O)[C@@H](O)C/C=C/c2cc(OCC(O)CO)cc(O)c2C(=O)O[C@H]1C (some centres undefined) | –
14 | 0.015 µM | > 10 µM | C[C@@H]1/C=C\C(=O)[C@@H](O)[C@@H](O)C/C=C/c2cc(OCCn3ccnc3)cc(O)c2C(=O)O[C@H]1C | 6.5 mg/kg
15 | 0.031 µM | > 10 µM | CC(=O)NCC(=O)COc1cc(O)c2c(c1)/C=C/C[C@H](O)[C@H](O)C(=O)/C=C\[C@@H](C)[C@H](C)OC2=O | –
16 | 0.1 µM | > 10 µM | CCOc1cc(O)c2c(c1)/C=C/C[C@H](O)[C@H](O)C(=O)/C=C\[C@@H](C)[C@H](C)OC2=O | 12 mg/kg
17 | 0.293 µM | > 10 µM | COc1cc(O)c2c(c1)NC(=O)C[C@H](O)[C@H](O)C(=O)/C=C\[C@@H](C)[C@H](C)OC2=O | –
18 | 0.136 µM | > 10 µM | COc1cc(O)c2c(c1)/C=C/C[C@H](O)[C@H](O)C(=O)/C=C\[C@@H](C)[C@H](C)OC2=O | 13.2 mg/kg
19 | 0.032 µM | > 10 µM | C[C@@H]1/C=C\C(=O)[C@@H](O)[C@@H](O)C/C=C/c2cc(OCCCS(C)(=O)=O)cc(O)c2C(=O)O[C@H]1C | 9.8 mg/kg
20 | 1.68 µM | > 10 µM | COc1cc(O)c2c(c1)OCC[C@H](O)[C@H](O)C(=O)/C=C\[C@@H](C)[C@H](C)OC2=O | –
21 | 0.804 µM | > 10 µM | COc1cc(O)c2c(c1Br)/C=C/C[C@H](O)[C@H](O)C(=O)/C=C\[C@@H](C)[C@H](C)OC2=O | –
22 | 0.597 µM | > 10 µM | C[C@@H]1/C=C\C(=O)[C@@H](O)[C@@H](O)C/C=C/c2cc(OCCN(C)C)cc(O)c2C(=O)O[C@H]1C | –
23 | 0.325 µM | > 10 µM | CCCCOc1cc(O)c2c(c1)/C=C/C[C@H](O)[C@H](O)C(=O)/C=C\[C@@H](C)[C@H](C)OC2=O | –
